What was measured:
Format in all cases: in vivo
[1] = tested on: barnyardgrass (Echinochloa crus-galli); experiment: Test A preemergence soil spray, visual injury rating 0-100; settings: 10 days
Procedure, shortened: (§1)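 Directed preemergence spray onto seeded soil or postemergence spray onto 2-10 cm plants (loam plus sand); compound carried in surfactant-containing non-phytotoxic solvent. Injury rated by eye after 10 d greenhouse growth; 0 = no effect, 100 = complete control.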

[2] = tested on: blackgrass (Alopecurus myosuroides); experiment: as above; settings: 10 days
Procedure, shortened: as §1

corn (Zea mays) [3] = experiment: as above; settings: 10 days
Procedure, shortened: as §1

[4] = tested on: green foxtail (Setaria viridis); experiment: as above; settings: 10 days
Procedure, shortened: as §1

kochia (Bassia scoparia) [5] = experiment: as above; settings: 10 days
Procedure, shortened: as §1

[6] = tested on: oat, wild (wild oat, Avena fatua); experiment: as above; settings: 10 days
Procedure, shortened: as §1

[7] = tested on: palmer (palmer amaranth, palmer pigweed, Amaranthus palmeri); experiment: as above; settings: 10 days
Procedure, shortened: as §1

[8] = tested on: ragweed (common ragweed, Ambrosia artemisiifolia); experiment: as above; settings: 10 days
Procedure, shortened: as §1

[9] = tested on: ryegrass, Italian (italian ryegrass, Lolium multiflorum); experiment: as above; settings: 10 days
Procedure, shortened: as §1

soybean (Glycine max) [10] = experiment: as above; settings: 10 days
Procedure, shortened: as §1

[11] = tested on: wheat (Triticum aestivum); experiment: as above; settings: 10 days
Procedure, shortened: as §1

[12] = tested on: barnyardgrass (Echinochloa crus-galli); experiment: Test A postemergence application, visual injury rating 0-100
Procedure, shortened: as §1

[13] = tested on: blackgrass (Alopecurus myosuroides); experiment: as above
Procedure, shortened: as §1

corn (Zea mays) [14] = experiment: as above
Procedure, shortened: as §1

[15] = tested on: galium (catchweed bedstraw, Galium aparine); experiment: as above
Procedure, shortened: as §1

[16] = tested on: green foxtail (Setaria viridis); experiment: as above
Procedure, shortened: as §1

[17] = tested on: horseweed (Erigeron canadensis); experiment: as above
Procedure, shortened: as §1

kochia (Bassia scoparia) [18] = experiment: as above
Procedure, shortened: as §1

[19] = tested on: oat, wild (wild oat, Avena fatua); experiment: as above
Procedure, shortened: as §1

[20] = tested on: palmer (palmer amaranth, palmer pigweed, Amaranthus palmeri); experiment: as above
Procedure, shortened: as §1

[21] = tested on: ragweed (common ragweed, Ambrosia artemisiifolia); experiment: as above
Procedure, shortened: as §1

[22] = tested on: ryegrass, Italian (italian ryegrass, Lolium multiflorum); experiment: as above
Procedure, shortened: as §1

soybean (Glycine max) [23] = experiment: as above
Procedure, shortened: as §1

[24] = tested on: wheat (Triticum aestivum); experiment: as above
Procedure, shortened: as §1

[25] = tested on: barnyardgrass (Echinochloa crusgalli); experiment: Test B flooded paddy test, visual plant response rating 0-100; settings: 250 g ai/ha, Flood, applied to paddy water, evaluated after 13 days
Procedure, shortened: (§2)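 Treatment occurs at the 2-leaf stage by adding compound to floodwater standing 3 cm above the soil, a level kept for the whole test. Plants stay in the greenhouse 13 days before visual comparison with controls.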

[26] = tested on: ducksalad (Heteranthera limosa); experiment: as above; settings: 250 g ai/ha, Flood, applied to paddy water, evaluated after 13 days
Procedure, shortened: as §2

rice (Oryza sativa) = experiment: as above; settings: 250 g ai/ha, Flood, applied to paddy water, evaluated after 13 days
Procedure, shortened: as §2

[27] = tested on: sedge, umbrella (small-flower umbrella sedge, Cyperus difformis); experiment: as above; settings: 250 g ai/ha, Flood, applied to paddy water, evaluated after 13 days
Procedure, shortened: as §2

[28] = 62 g ai/ha, 0 = no effect, 100 = complete control
[29] = 62 g ai/ha, postemergence, 10 days, 0 = no effect, 100 = complete control
[30] = Postemergence, 16 g ai/ha, greenhouse 10 days, 0 no effect, 100 complete control

C=CC1(C(=O)NC2CC(C(=O)OC)C2)CN(c2cc(F)cc(F)c2)C(=O)O1 (stereo not shown) [Compound 175]
Barnyardgrass plant response rating ([1]; 16 g ai/ha, 0 to 100 scale): 0 | Barnyardgrass plant response rating (0-100) [1, 28]: 50 | Blackgrass plant response rating ([2]; 16 g ai/ha, 0 to 100 scale): 40 | Blackgrass plant response rating (0-100) [2, 28]: 60 | Corn plant response rating (corn (Zea mays) [3]; 16 g ai/ha, 0 to 100 scale): 0 | Corn plant response rating (0-100) (corn (Zea mays) [3]; [28]): 0 | Foxtail, Green plant response rating ([4]; 16 g ai/ha, 0 to 100 scale): 0 | Foxtail, Green plant response rating (0-100) [4, 28]: 90 | Kochia plant response rating (kochia (Bassia scoparia) [5]; 16 g ai/ha, 0 to 100 scale): 0 | Kochia plant response rating (0-100) (kochia (Bassia scoparia) [5]; [28]): 0 | Oat, Wild plant response rating ([6]; 16 g ai/ha, 0 to 100 scale): 0 | Oat, Wild plant response rating (0-100) [6, 28]: 0 | Pigweed, Palmer plant response rating ([7]; 16 g ai/ha, 0 to 100 scale): 0 | Pigweed, Palmer plant response rating (0-100) [7, 28]: 0 | Ragweed plant response rating ([8]; 16 g ai/ha, 0 to 100 scale): 0 | Ragweed plant response rating (0-100) [8, 28]: 0 | Ryegrass, Italian plant response rating ([9]; 16 g ai/ha, 0 to 100 scale): 10 | Ryegrass, Italian plant response rating (0-100) [9, 28]: 90 | Soybean plant response rating (soybean (Glycine max) [10]; 16 g ai/ha, 0 to 100 scale): 0 | Soybean plant response rating (0-100) (soybean (Glycine max) [10]; [28]): 0 | Wheat plant response rating ([11]; 16 g ai/ha, 0 to 100 scale): 40 | Wheat plant response rating (0-100) [11, 28]: 90 | Barnyardgrass plant response rating (0-100) [12, 29]: 70 | Barnyardgrass plant response rating (0 to 100 scale) [12, 30]: 0 | Blackgrass plant response rating (0-100) [13, 29]: 90 | Blackgrass plant response rating (0 to 100 scale) [13, 30]: 60 | Corn plant response rating (0-100) (corn (Zea mays) [14]; [29]): 20 | Corn plant response rating (0 to 100 scale) (corn (Zea mays) [14]; [30]): 0 | Galium plant response rating (0-100) [15, 29]: 90 | Galium plant response rating (0 to 100 scale) [15, 30]: 90 | Foxtail, Green plant response rating (0-100) [16, 29]: 90 | Foxtail, Green plant response rating (0 to 100 scale) [16, 30]: 30 | Horseweed plant response rating (0-100) [17, 29]: 0 | Horseweed plant response rating (0 to 100 scale) [17, 30]: 0 | Kochia plant response rating (0-100) (kochia (Bassia scoparia) [18]; [29]): 0 | Kochia plant response rating (0 to 100 scale) (kochia (Bassia scoparia) [18]; [30]): 0 | Oat, Wild plant response rating (0-100) [19, 29]: 80 | Oat, Wild plant response rating (0 to 100 scale) [19, 30]: 60 | Pigweed, Palmer plant response rating (0-100) [20, 29]: 10 | Pigweed, Palmer plant response rating (0 to 100 scale) [20, 30]: 0 | Ragweed plant response rating (0-100) [21, 29]: 0 | Ragweed plant response rating (0 to 100 scale) [21, 30]: 0 | Ryegrass, Italian plant response rating (0-100) [22, 29]: 100 | Ryegrass, Italian plant response rating (0 to 100 scale) [22, 30]: 70 | Soybean plant response rating (0-100) (soybean (Glycine max) [23]; [29]): 60 | Soybean plant response rating (0 to 100 scale) (soybean (Glycine max) [23]; [30]): 0 | Wheat plant response rating (0-100) [24, 29]: 70 | Wheat plant response rating (0 to 100 scale) [24, 30]: 30 | Plant response rating, Barnyardgrass (0 to 100 scale, 0 is no effect and 100 is complete control) [25]: 0 | Plant response rating, Ducksalad (0 to 100 scale, 0 is no effect and 100 is complete control) [26]: 0 | Plant response rating, Rice (0 to 100 scale, 0 is no effect and 100 is complete control) (rice (Oryza sativa)): 0 | Plant response rating, Sedge, Umbrella (0 to 100 scale, 0 is no effect and 100 is complete control) [27]: 0

— US20260285850A1, “SUBSTITUTED OXAZOLIDINONES AND IMIDAZOLINONES AS HERBICIDES” (FMC CORPORATION, priority 2023, published 2026)
